Each block holds one molecule with its values, some of them ahead of it.
What was measured:
[1] = absorption wavelength (λmax) and extinction (ε); format: physicochemical; details: for λmax in EtOH (first value) / ε (first value): Table 1, EtOH; for ε (first value): at first λmax, in M-1cm-1 (unit assumed); for λmax: synthesis example
[2] = solubility; format: physicochemical
[3] = double bond conversion (C=C% Conversion) by FTIR; details: addition of coinitiator to onium salt composition
Description: (§1) To a resin formulation consisting of 15 parts urethane diacrylate, 15 parts DPHPA, 20 parts TPGDA and 40 parts TMPTA was added DIDMA, initiator and (4-octyloxyphenyl)phenyliodonium hexafluoroantimonate (OPPI). The samples were coated to a thickness of 15 microns and exposed to a 75 W tungsten halogen dental lamp (focused through an optical fiber) at a distance of 0.75 inch at which the Light intensity was about 0.40 W/cm^2. The molar ratios are indicative of the amounts of fluorone to onium salt to amine coinitiator. The double bond conversion was determined by FTIR spectroscopy. The pencil hardness of a given test sample is measured by holding a pencil at a 45° angle to the sample and drawing across it towards the person testing it. Using the pencils in an order from softest to hardest, the first pencil that scratches the surface is assigned as the pencil hardness of the sample. The pencil hardness scale is as follows from softest to hardest: 4B, 3B, 2B, B, HB, H, 2H, 3H, 4H, 6H. For instance, if a 2H pencil is the first pencil to scratch the surface then the pencil hardness is 2H.

[4] = pencil hardness
Description: as §1
At the extreme ends of the scale, it is impossible to determine the actual pencil hardness. […] Likewise, if the 4B pencil scratches the sample, the only assignment that can be made is <4B, unless it is a lot softer than 4B in which case a <<4B can be assigned. A pencil hardness of 4H is generally considered satisfactory. Pencil hardness data was greater than 6H after 30 seocnd exposure for all samples except for the control samples without amine (1:2:0). The controls were all less than 4B an 0.05 wt %, 0.10 wt %, and 0.15 wt %.
Photosensitive compositions were prepared from the resin formulation of Example 35 containing 1% NPG and 0.05% DIBF or 0.05% DIEF. The samples were exposed under the conditions shown in the following table and pencil hardness was measured.
Diphenyliodonium hexafluoroantimonate was added to DIBF samples.
Samples were also prepared using 1% DIDMA in addition to the fluorone for a 20:1 weight ratio.
Samples were also prepared from the same resin formulation containing 0.1% DIBF in addition to the coinitiator listed in the following Table 9 with the exposure condition and pencil hardness results shown.
Using the resin formulation of Example 36, photosensitive compositions were prepared using TIHF, DIDMA and OPPI at a concentration of 0.21% and in the molar ratios shown in Table 10 which follows. Exposure was conducted with the dental lamp at a distance of 1 inch from the sample to provide an intensity of about 0.26 W/cm^2. Molar ratios are fluorone:onium salt:amine.

[5] = film speed; details: addition of coinitiator to onium salt composition
Excerpt: Examples of onium salts useful in the invention can be found in published European Patent Application 0 408227A1. The preferred onium salts for use in the invention are diphenyliodonium salts such as diphenyliodonium hexafluorophosphate, arsenates, antimonates, etc., and, more particularly,hexafluoro-antimonate. Onium salts of simple anions such as chlorides, bromides, etc. are also useful in free radical polymerizable compositions. A particularly preferred onium salt is OPPI below. Addition of a coinitiator such as NPG improves film speed, pencil hardness and double bond conversion. A particularly preferred initiator system is a combination of an iodofluorone in accordance with the invention such as TIHF or DIBF, an amine such as NPG or DIDMA and an onium salt. A preferred molar ratio of fluorone to onium salt to amine is about 1:2:3. […] These onium salt formulations are illustrated in the following Examples 35-37.

[6] = fluorescence (λf, φf); format: physicochemical
Excerpt: In Table 2 below, the properties of the foregoing initiators are shown:
Entries in the table are in the solvents according to the following order.

[7] = pKa; format: physicochemical
Excerpt: (§2) In Table 2 below, the properties of the foregoing initiators are shown: […]

[8] = oxidation and reduction potentials (Eox, Ered); format: physicochemical; details: in V (unit assumed)
Excerpt: as §2

[9] = depth of cure; details: other fluorone dyes
Excerpt: One of the advantages of the fluorone dye photoinitiators in this invention is the depth of the cure that is obtainable. This is in contrast to UV photoinitators that causes a "screening" effect which prevents the UV light from penetrating beyond a certain […] depth, usually several millimeters. By contrast, the fluorone dye bleaches as it photoinitiates and is concommitantly converted into a non-visible absorbing species thus allowing more visible light to penetrate which continues the cure. This cascading bleaching effect permits substantial depth of cure which can easily reach several inches.
An acrylate monomer mixture was composed of 15 parts urethane diacrylate, 20 parts TPGPA, 40 parts TMPTA and 15 parts DPHPA, and a 20 to 1 weight ratio of NPG coinitiator to DIEF or DIBF fluorone dye. For dye concentrations of 0.01, 0.05 and 0.1 weight, all the formulations cured to a depth of 3 cm in 30 seconds when exposed to a 350 watt tungsten halogen light which provides about 500 mw/cm^2 irradiance. When the irradiance was increased to about 2 watts/cm^2 cure speed was shortened to 5 seconds for the same depth.
An acrylate mixture was composed of 60% urethane diacrylate, 30% DPHPA, 10% BDDA, and 0.05 weight % of DIEF or DIBF fluorone dye with 2 weight % of DIDMA. The formulation cure to a depth greater than 1 cm in 10 seconds when exposed to a 75 watt tungsten halogen lamp which provided an irradiance of about 260 mw/cm^2.
An acrylate mixture was composed of 33% TMPTA, 33% DPHPA, 33% Epoxy acrylate, and 2% of DIDMA with either 0.01, 0.05 or 0.1 weight % of DIEF. All samples cured to a depth greater than 1 cm in 10 seconds when exposed to a 75 watt tungsten halogen.
An acrylate mixture was composed of 70% urethane diacrylate, 5% DPHPA, 25% BDDA, and 2% DIDMA with either 0.01, 0.03 or 0.1 weight % DIEF. The 0.01 and 0.03 samples cured after 2 passes through a 300 watt per inch medium pressure mercury arc lamp at a speed of 50 feet/minute to a depth greater than 3 mm. The 0.1 sample cured to a depth of greater than 1.5 mm.

λmax in EtOH (first value) [1]: 538 | ε (first value) [1]: 84,800 | solubility in CDCl3 [2]: almost no solubility | solubility in DMSO ([2]; DMSO): poor solubility
Compound: CCCCCCCC(=O)c1cc2cc3cc(I)c(=O)c(I)c-3oc2c(I)c1O [Compound 17, 3-hydroxy-4,5,7-triiodo-2octanoyl-6-fluorone]

λmax in EtOH (first value) [1]: 530 | ε (first value) [1]: 39300 | λmax ([1]; methanol): 526 nm | φf [6]: .52 | λf ([6]; MeOH): 539 nm | pKa [7]: 3.28 | Eox [8]: 1.099 | Ered [8]: -.95
Compound: O=c1c(Br)cc2cc3cc(Br)c(O)c(Br)c3oc-2c1Br [TBHF, 3-hydroxy-2,4,5,7-tetrabromo-6-fluorone]

λmax in EtOH (first value) [1]: 536 | ε (first value) [1]: 91200 | λmax ([1]; ethanol): 536 nm | φf [6]: .13 | pKa [7]: 4.08 | Eox [8]: 1.04 | Ered [8]: -.95
Compound: O=c1c(I)cc2cc3cc(I)c(O)c(I)c3oc-2c1I [TIHF, 3-hydroxy-2,4,5,7-tetraiodo-6-fluorone]
depth of cure results [9]: have also been observed | Pencil hardness ([4]; 0.21%, TIHF:OPPI:DIDMA (1:1:0), dental lamp 60 sec.): 4H | Pencil hardness ([4]; 0.21%, TIHF:OPPI:DIDMA (1:1:1), dental lamp 60 sec.): 5-6H | Pencil hardness ([4]; 0.21%, TIHF:OPPI:DIDMA (1:1:5), dental lamp 60 sec.): > 6H | Pencil hardness ([4]; 0.21%, TIHF:OPPI:DIDMA (1:1:10), dental lamp 60 sec.): > 6H | Pencil hardness ([4]; 0.21%, TIHF:OPPI:DIDMA (1:1:33), dental lamp 60 sec.): > 6H | Pencil hardness ([4]; 0.21%, TIHF:OPPI:DIDMA (1:2:0), dental lamp 60 sec.): 5-6H | Pencil hardness ([4]; 0.21%, TIHF:OPPI:DIDMA (1:2:5), dental lamp 60 sec.): > 6H | Pencil hardness ([4]; 0.21%, TIHF:OPPI:DIDMA (1:2:10), dental lamp 60 sec.): > 6H | Pencil hardness ([4]; 0.21%, TIHF:OPPI:DIDMA (1:2:33), dental lamp 60 sec.): > 6H | Pencil hardness ([4]; 0.21%, TIHF:OPPI:DIDMA (1:5:)), dental lamp 60 sec.): 5-6H | Pencil hardness ([4]; 0.21%, TIHF:OPPI:DIDMA (1:10:0), dental lamp 60 sec.): 5-6H

The remaining lines, values behind:

Compound: CCCCCCCC(=O)c1cc2c(C#N)c3cc(I)c(=O)c(I)c-3oc2c(I)c1O [Compound 18, 9-cyano-3-hydroxy-4,5,7-triiodo-2-octanoyl-6-fluorone]
λmax in EtOH (first value) [1]: 636 | ε (first value) [1]: 17,000 | absorption wavelength ([1]; comparison): 638 nm | solubility in CDCl3 [2]: very good solubility

Compound: O=C(O)CNc1ccccc1 [NPG, N-phenylglycine, reference compound]
double bond conversion [3]: improves | Pencil hardness ([4]; addition of coinitiator to onium salt composition): improves | film speed [5]: improves

— patent publication US5623080A, “Fluorone and pyronin Y derivatives” (Spectra Group Limited, Inc., priority 1995, dated 1997)
